{"source": "patent US9663569B2", "about": "“Use of blocking agents of bone morphogenic protein (BMP) signalling for the treatment of neuroinflammatory and neurodegenerative diseases” (THE MEDICAL RESEARCH, INFRASTRUCTURE, AND HEALTH SERVICES …, priority 2012, dated 2017)", "test_system": "SJL female mice with induced RR-EAE", "test": "RR-EAE clinical score in SJL mice after systemic treatment", "assay_type": "in vivo", "protocol": "The SJL/EAE mice model was chosen based on its relapsing and remitting (RR) pattern, which resembles the pattern of RR-multiple sclerosis in humans. RR-EAE was induced in SJL female mice (8 weeks old, Harlan Laboratories, Ltd. Israel) by subcutaneous immunization (designated day 0) with proteolipid protein peptide (PLP139-151, BioSight Ltd.) at a concentration of 100 μg/mouse.\nIn both models the peptides used for EAE induction were emulsified in an equal volume of Complete Freund's Adjuvant (CFA, DIFCO), containing 500 μg Mycobacterium tuberculosis H37RA (MT, DIFCO). In addition, the mice received two consecutive intraperitoneal injections of 300 ng Pertussis toxin (PTX, Sigma-Aldrich) in 0.2 ml PBS. The first injection was given at day 0 and a second injection was given 48 h afterwards.\nDay 9 post induction of EAE was chosen for administration of anti-BMP neutralizing antibodies, in order to affect both the onset and the severity of EAE. […], emulsified in 200 μl PBS: anti-human BMP-2/4 (an antibody which recognizes both BMP-2 and BMP-4), anti-human BMP-5, and anti-human BMP-7 mAbs (all anti-BMP neutralizing monoclonal antibodies were obtained from R&D systems). Commercial anti-human BMPs were used based on the high homology (>95%) between human and mouse BMPs. […] Since the blood brain barrier (BBB) is disrupted in the EAE mice by the presence of pertussis toxin, the injected antibodies are present systemically in the blood stream but are also transmitted to the CNS through the disrupted BBB.\nMice treated with corresponding isotype controls (IgG1 and IgG2β, termed herein “IC”) (R&D systems) as well as mice treated with the vehicle PBS alone (termed herein “vehicle”) were used as negative controls (n=12 in each group).\nMice were monitored for symptoms of RR-EAE and were scored as follows: “0” for no disease; “1”, tail paralysis; “2”, hind limb weakness; “3”, hind limb paralysis; “4”, hind limb and forelimb paralysis; “5”, moribund.\n[…] Animals were daily monitored for EAE symptoms and scored as described above. […]", "key": {"[1]": {"conditions": "10 mg/kg i.p. every 12 hr for 5 days from day 9 post immunization"}}, "data": [{"molecule": "c1cc(-c2cnn3cc(-c4ccc(OCCN5CCCCC5)cc4)cnc23)ccn1", "note": "[dorsomorphin, 6-[4-(2-Piperidin-1-yl-ethoxy)phenyl]-3-pyridin-4-yl-pyrazolo[1,5-a]pyrimidine]", "values": [{"measurement": "form of the disease during treatment", "setting": "[1]", "result": "very mild form of the disease"}, {"measurement": "onset of the first relapse delayed to day", "setting": "[1]", "result": 16, "unit": "days"}, {"measurement": "mice exhibiting the severe forms of the disease (score 2-5)", "setting": "10 mg/kg i.p., day 9 to day 13, until day 16 post immunization", "result": "no mice"}]}]}
